Laboratory results: patent US20230172848A1, “ORAL FILM FOR SAFE ADMINISTRATION OF API” (LABTEC GMBH, priority 2020, published 2023)
Like-named read-outs stand apart in the source and are kept apart here.

Assays:
[1] = acceptor medium of buffer pH 7.0
Procedure: The dosage unit prepared from formulation F6 were tested for ex-vivo permeation on porcine buccal mucosa in vertical Franz-cells.

[2] = cited from earlier work
[3] = cited from earlier work; for required dose for induction of anesthesia: 1% solution i.v.
[4] = in vivo; cited from earlier work

Question: Which “concentration of saturated solution” value [1] does the source give for `CC(C)c1cccc(C(C)C)c1O` [propofol, 2,6-diisopropylphenol] here?
Answer: Its value is “about 167.8 μg/ml”.

Question: What about the “blood level required for the sedative effect” value ([2]; Dhir et al., 2016) of the same molecule?
Answer: The value was 1.5 to 2.0 µg/mL.

Question: And the “average blood concentration required for anesthetic effect” value ([2]; major surgeries)?
Answer: The value was 4.05 ± 1.01 µg/mL.

Question: And the “blood concentration sufficient for anesthetic effect” value ([2]; minor surgical procedures)?
Answer: The value was 2.97 ± 1.07 µg/mL.

Question: What about the “required dose for induction of anesthesia” value ([3]; adult patients aged less than 55 years) of the same molecule?
Answer: The value was 1.5-2.5 mg/kg body weight.

Question: And the “required dose for induction of anesthesia” value ([3]; children over 8 years)?
Answer: Its value is “about 2.5 mg/kg body weight”.

Question: What about the “rate of administration that maintains the anesthetic effect” value ([3]; adults under the age of 55) of the same molecule?
Answer: Its value is 4-12 mg/kg body weight/h.

Question: What about the “rate of administration that maintains the anesthesia” value ([3]; children over the age of 1 month) of the same molecule?
Answer: The value was 9-15 mg/kg body weight/h.

Question: And the oral bioavailability [4]?
Answer: Its oral bioavailability is “very low”.
